The NIST ThermoML archive (doi:10.1016/j.tca.2011.07.005)
Values joined by “and” are separate entries in the source; they are usually repeats but may differ in a detail not shown here. Identical values can stand only once.

How the values were obtained:
[1] = 101 kPa, Liquid; for speed of sound: Linear variable-path acoustic interferometer; for mass density: Pycnometric method
[2] = xn = mol fraction of the nth substance listed; settings: 101 kPa, Liquid; for speed of sound: Linear variable-path acoustic interferometer; for mass density: Pycnometric method

Nc1ccccc1Cl [2-chlorobenzeneamine]
[1]
Settings | mass density [kg/m3] | speed of sound [m/s]
303.15 K | 1202.7 | 1470
313.15 K | 1193 | 1438
323.15 K | 1183.3 | 1402

Nc1cccc(Cl)c1 [3-chlorobenzenamine] + CC(C)OC(C)C
[2]
Settings | mass density, 303.15 K [kg/m3] | mass density, 313.15 K [kg/m3] | mass density, 323.15 K [kg/m3] | speed of sound, 303.15 K [m/s] | speed of sound, 313.15 K [m/s] | speed of sound, 323.15 K [m/s]
x2 = 0 | 1205.3 | 1196.1 | 1186.6 | 1517 | 1484 | 1452
x2 = 0.0619 | 1171.2 | 1163.2 | 1154.7 | 1484 | 1451 | 1418
x2 = 0.1302 | 1134.1 | 1126.7 | 1118.2 | 1448 | 1414 | 1380
x2 = 0.2031 | 1095.7 | 1088.2 | 1079.3 | 1410 | 1374 | 1340
x2 = 0.2827 | 1055.1 | 1047.4 | 1038 | 1368 | 1331 | 1295
x2 = 0.3716 | 1011.3 | 1003.4 | 993.6 | 1321 | 1283 | 1246
x2 = 0.4676 | 965 | 957.2 | 947.6 | 1270 | 1230 | 1192
x2 = 0.5803 | 911.2 | 903.7 | 894.5 | 1209 | 1168 | 1129
x2 = 0.7235 | 842.6 | 835.3 | 826.7 | 1132 | 1089 | 1048
x2 = 0.8428 | 785.4 | 777.7 | 768.7 | 1066 | 1023 | 981

CC(C)OC(C)C [diisopropyl ether] + Nc1cccc(Cl)c1
[2], x1 = 1
Settings | mass density [kg/m3] | speed of sound [m/s]
303.15 K | 712.9 | 976
313.15 K | 702.9 | 932
323.15 K | 691.9 | 889

Nc1cccc(Cl)c1 [3-chlorobenzenamine]
[1]
Settings | mass density | speed of sound
303.15 K | 1205.3 kg/m3 | 1517 m/s
313.15 K | 1196.1 kg/m3 and 1196 kg/m3 | 1484 m/s and 1486 m/s
323.15 K | 1186.6 kg/m3 | 1452 m/s

CC(C)OC(C)C [diisopropyl ether]
[1]
Settings | mass density [kg/m3] | speed of sound [m/s]
303.15 K | 712.9 | 976
313.15 K | 702.9 | 932
323.15 K | 691.9 | 889

Nc1cccc(Cl)c1 [3-chlorobenzenamine] + C1CCOC1
[2]
Settings | mass density, 303.15 K [kg/m3] | mass density, 313.15 K [kg/m3] | mass density, 323.15 K [kg/m3] | speed of sound, 303.15 K [m/s] | speed of sound, 313.15 K [m/s] | speed of sound, 323.15 K [m/s]
x2 = 0 | 1205.3 | 1196 | 1186.6 | 1517 | 1486 | 1452
x2 = 0.0728 | 1189.4 | 1180.6 | 1171.5 | 1500 | 1468 | 1436
x2 = 0.1321 | 1175.7 | 1167.1 | 1157.9 | 1487 | 1455 | 1424
x2 = 0.2389 | 1149.7 | 1140.6 | 1131.3 | 1465 | 1432 | 1400
x2 = 0.3272 | 1126.8 | 1117 | 1107.4 | 1446 | 1412 | 1380
x2 = 0.4116 | 1102.9 | 1093.2 | 1083.3 | 1427 | 1392 | 1360
x2 = 0.5161 | 1071.3 | 1061.4 | 1051.5 | 1403 | 1366 | 1333
x2 = 0.6297 | 1033.5 | 1023.9 | 1014.3 | 1373 | 1336 | 1301
x2 = 0.7419 | 992 | 982.7 | 973.7 | 1341 | 1302 | 1266
x2 = 0.8633 | 941.6 | 932.3 | 923.4 | 1302 | 1260 | 1222

C1CCOC1 [tetrahydrofuran] + Nc1cccc(Cl)c1
[2], x1 = 1
Settings | mass density [kg/m3] | speed of sound [m/s]
303.15 K | 876.9 | 1254
313.15 K | 865.7 | 1207
323.15 K | 854.8 | 1165

C1CCOC1 [tetrahydrofuran] + Nc1ccccc1Cl
[2], x1 = 1
Settings | mass density [kg/m3] | speed of sound [m/s]
303.15 K | 876.9 | 1254
313.15 K | 865.7 | 1207
323.15 K | 854.8 | 1165

C1CCOC1 [tetrahydrofuran]
[1]
Settings | mass density [kg/m3] | speed of sound [m/s]
303.15 K | 876.9 | 1254
313.15 K | 865.7 | 1207
323.15 K | 854.8 | 1165

Nc1ccccc1Cl [2-chlorobenzeneamine] + C1CCOC1
[2]
Settings | mass density, 303.15 K [kg/m3] | mass density, 313.15 K [kg/m3] | mass density, 323.15 K [kg/m3] | speed of sound, 303.15 K [m/s] | speed of sound, 313.15 K [m/s] | speed of sound, 323.15 K [m/s]
x2 = 0 | 1202.7 | 1193 | 1183.3 | 1470 | 1438 | 1402
x2 = 0.0695 | 1187.6 | 1177.4 | 1167.9 | 1461 | 1427 | 1395
x2 = 0.1543 | 1167.6 | 1157.7 | 1148.6 | 1450 | 1415 | 1383
x2 = 0.2423 | 1146 | 1136.3 | 1127 | 1436 | 1401 | 1369
x2 = 0.3275 | 1124.2 | 1114.5 | 1105 | 1422 | 1386 | 1353
x2 = 0.4213 | 1098.7 | 1088.7 | 1079.1 | 1404 | 1367 | 1333
x2 = 0.5259 | 1067.6 | 1057.4 | 1047.5 | 1383 | 1344 | 1308
x2 = 0.6325 | 1032 | 1021.8 | 1012.2 | 1359 | 1319 | 1281
x2 = 0.744 | 990.1 | 980.1 | 971 | 1331 | 1289 | 1250
x2 = 0.8663 | 938.4 | 928.5 | 920 | 1296 | 1252 | 1212
